Reference: patent publication US20250197420A1, “MACROCYCLIC COMPOUNDS, COMPOSITIONS, AND METHODS OF USING THEREOF” (Sionna Therapeutics Inc., priority 2022, published 2025)

Key:
[1] = biological target: T1, Purified recombinant NBD1 (Homo sapiens, UniProt P13569); assay: Aggregation analysis using differential static light scattering (DSLS): thermal stability of NBD1; assay type: binding; conditions: NBD1 0.2 mg/ml; Tagg of compound well minus average Tagg of DMSO control wells
T1 construct: Purified recombinant NBD1 was produced using previously described methods; made in house
In short: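 Recombinant NBD1 at 0.2 mg/ml in Tris/NaCl/MgCl2 buffer with 2 mM ATP, 2 mM DTT, 1% glycerol, pH 7.6, was incubated with compound and heated at 1 °C/min to 70 °C while static light scattering was monitored. Tagg was taken from the curve inflection point and reported as ΔTagg relative to DMSO controls.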

[2] = test system: Primary human bronchial epithelial cells from a ΔF508 homozygous CF donor (CF-HBE cells); assay: TECC24 recording of CFTR-mediated transepithelial chloride transport, AUC fold over benchmark VX-809 @10 μM; assay type: cell-based; conditions: 48 hours incubation, AUC of forskolin-stimulated IEQ
In short: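 CF-HBE cells on inserts were treated with compound for 48 h at 36.5 °C, then recorded in current-clamp with benzamil 10 μM, forskolin 10 μM, and finally CFTR inhibitor-172 20 μM in pH 7.4 Hepes saline. Equivalent Cl− current AUC between forskolin and inhibitor addition is expressed as a ratio to VX-809 AUC: A <3, B 3–6, C 6–20.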

T1 sequence (P13569 423-646 limits assumed): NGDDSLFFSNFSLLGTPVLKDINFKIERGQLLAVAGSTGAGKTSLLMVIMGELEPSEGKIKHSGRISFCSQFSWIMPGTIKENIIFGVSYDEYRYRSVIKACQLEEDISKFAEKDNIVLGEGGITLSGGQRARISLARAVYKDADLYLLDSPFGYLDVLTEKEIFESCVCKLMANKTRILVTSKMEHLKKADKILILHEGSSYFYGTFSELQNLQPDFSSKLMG

SMILES	DSLS (ΔTagg) [1]	TECC (test agent AUC divided by VX-809 AUC) [2]
CC(Cc1cccc(C2(C)CCCCC(C)(C)NC(=O)OCc3c(c(F)cc4[nH]ccc34)Oc3ccc(F)c(c3)-c3nc2nn3C)c1)C(=O)O (single isomer, unassigned) [Compound 101B, 3-[3-(23,29-difluoro-3,6,11,11-tetramethyl-13-oxo-14,25-dioxa-3,4,12,20,31-pentazapentacyclo[24.3.1.12,5.016,24.017,21]-hentriaconta-1(30),2(31),4,16,18,21,23,26,28-nonaen-6-yl)phenyl]-2-methyl-propanoic acid]	A (an ΔTagg value less than or equal to 5 °C is marked “A”)	A (a TECC value less than 3 is marked “A”)
C[C@@H](Cc1cccc(C2(C)CCCC(C)(C)N(C)S(=O)(=O)CCc3c(c(F)cc4[nH]ccc34)Oc3ccc(F)c(c3)-c3nc2nn3C)c1)C(=O)O (single isomer, unassigned) [Compound 117A]	B (a value above 5 °C and less than or equal to 10 °C is marked “B”)	A (a TECC value less than 3 is marked “A”)
C[C@@H](Cc1cccc(C2(C)CCCC(C)(C)N(C)S(=O)(=O)CCc3c(c(F)cc4[nH]ccc34)Oc3ccc(F)c(c3)-c3nc2nn3C)c1)C(=O)O (single isomer, unassigned) [Compound 117B]	C (a value greater than 10 °C and less than or equal to 25 °C is marked “C”)	B (a value between 3 and 6 is marked “B”)
O=C(O)CCc1cccc(C2CCCCNC(=O)CCc3c(c(F)cc4[nH]ccc34)Oc3ccc(F)c(c3)-c3ncc2[nH]3)c1 (stereo not shown) [Compound 3, 3-[3-(22,28-Difluoro-12-oxo-24-oxa-3,11,19,30-tetrazapentacyclo-[23.3.1.12,5.015,23.016,20]triaconta-1(29),2,4,15,17,20,22,25,27-nonaen-6-yl)phenyl]-propanoic acid]	C (a value greater than 10 °C and less than or equal to 25 °C is marked “C”)	B (a value between 3 and 6 is marked “B”)
O=C(O)CCc1cccc(C2CCCCCCNC(=O)CCc3c(c(F)cc4[nH]ccc34)Oc3ccc(F)c(c3)-c3ncc2[nH]3)c1 (stereo not shown) [Compound 4, 3-[3-(24,30-Difluoro-14-oxo-26-oxa-3,13,21,32-tetrazapentacyclo-[25.3.1.12,5.017,25.018,22]dotriaconta-1(31),2,4,17,19,22,24,27,29-nonaen-6-yl)phenyl]propanoic acid]	C (a value greater than 10 °C and less than or equal to 25 °C is marked “C”)	B (a value between 3 and 6 is marked “B”)
O=C(O)CCc1cccc(C2CCCNC(=O)CCc3c(c(F)cc4[nH]ccc34)Oc3ccc(F)c(c3)-c3ncc2[nH]3)c1 (stereo not shown) [Compound 8, 3-[3-(21,27-Difluoro-11-oxo-23-oxa-3,10,18,29-tetrazapentacyclo[22.3.1.12,5.014,22.015,19]nonacosa-1(28),2,4,14,16,19,21,24,26-nonaen-6-yl)phenyl]propanoic acid]	C (a value greater than 10 °C and less than or equal to 25 °C is marked “C”)	A (a TECC value less than 3 is marked “A”)
CC1(c2cccc(CCC(=O)O)c2)CC(=O)NCCCCCc2c(c(F)cc3[nH]ccc23)Oc2ccc(F)c(c2)-c2ncc1[nH]2 (stereo not shown) [Compound 26, 3-[3-(22,28-Difluoro-6-methyl-8-oxo-24-oxa-3,9,19,30-tetrazapentacyclo[23.3.1.12,5.015,23.016,20]triaconta-1(29),2,4,15,17,20,22,25,27-nonaen-6-yl)phenyl]propanoic acid]	C (a value greater than 10 °C and less than or equal to 25 °C is marked “C”)	B (a value between 3 and 6 is marked “B”)
CC1(c2ccccc2)CC(=O)NCCCCCc2c(c(F)cc3[nH]ccc23)Oc2ccc(F)c(c2)-c2ncc1[nH]2 (stereo not shown) [Compound 27, 22,28-Difluoro-6-methyl-6-phenyl-24-oxa-3,9,19,30-tetrazapentacyclo[23.3.1.12,5.015,23.016,20]triaconta-1(29),2,4,15,17,20,22,25,27-nonaen-8-one]	A (an ΔTagg value less than or equal to 5 °C is marked “A”)	A (a TECC value less than 3 is marked “A”)
CN1CC(C)(C)CCCC(c2cccc(CCC(=O)O)c2F)c2cnc([nH]2)-c2cc(ccc2F)Oc2c(F)cc3[nH]ccc3c2CCC1=O (stereo not shown) [Compound 28, 3-[3-(23,29-Difluoro-10,10,12-trimethyl-13-oxo-25-oxa-3,12,20,31-tetrazapentacyclo[24.3.1.12,5.016,24.017,21]hentriaconta-1(30),2,4,16,18,21,23,26,28-nonaen-6-yl)-2-fluoro-phenyl]propanoic acid]	C (a value greater than 10 °C and less than or equal to 25 °C is marked “C”)	A (a TECC value less than 3 is marked “A”)
CN1CCC(C)(C)CCC(C)(c2cccc(CCC(=O)O)c2)c2cnc([nH]2)-c2cc(ccc2F)Oc2c(F)cc3[nH]ccc3c2CCC1=O (stereo not shown) [Compound 29, 3-[3-(23,29-Difluoro-6,9,9,12-tetramethyl-13-oxo-25-oxa-3,12,20,31-tetrazapentacyclo[24.3.1.12,5.016,24.017,21]hentriaconta-1(30),2,4,16,18,21,23,26,28-nonaen-6-yl)phenyl]propanoic acid]	C (a value greater than 10 °C and less than or equal to 25 °C is marked “C”)	B (a value between 3 and 6 is marked “B”)
CN1CCC(C)(C)CCC(c2cccc(CCC(=O)O)c2F)c2cnc([nH]2)-c2cc(ccc2F)Oc2c(F)cc3[nH]ccc3c2CCC1=O (stereo not shown) [Compound 30, 3-[3-(23,29-Difluoro-9,9,12-trimethyl-13-oxo-25-oxa-3,12,20,31-tetrazapentacyclo[24.3.1.12,5.016,24.017,21]hentriaconta-1(30),2,4,16,18,21,23,26,28-nonaen-6-yl)-2-fluoro-phenyl]propanoic acid]	B (a value above 5 °C and less than or equal to 10 °C is marked “B”)	A (a TECC value less than 3 is marked “A”)
CN1CCC(C)(C)CCC(c2ccccc2F)c2cnc([nH]2)-c2cc(ccc2F)Oc2c(F)cc3[nH]ccc3c2CCC1=O (stereo not shown) [Compound 31, 23,29-difluoro-6-(2-fluorophenyl)-9,9,12-trimethyl-25-oxa-3,12,20,31-tetrazapentacyclo[24.3.1.12,5.016,24.017,21]hentriaconta-1(30),2,4,16,18,21,23,26,28-nonaen-13-one]	A (an ΔTagg value less than or equal to 5 °C is marked “A”)	A (a TECC value less than 3 is marked “A”)
CN1CC(C)(C)CCC(C)(c2cccc(CCC(=O)O)c2)c2cnc([nH]2)-c2cc(ccc2F)Oc2c(F)cc3[nH]ccc3c2CCC1=O (stereo not shown) [Compound 33, 3-[3-(22,28-Difluoro-6,9,9,11-tetramethyl-12-oxo-24-oxa-3,11,19,30-tetrazapentacyclo[23.3.1.12,5.015,23.016,20]triaconta-1(29),2,4,15,17,20,22,25,27-nonaen-6-yl)phenyl]propanoic acid]	B (a value above 5 °C and less than or equal to 10 °C is marked “B”)	A (a TECC value less than 3 is marked “A”)
CN1CC2(CCCC(C)(c3cccc(CCC(=O)O)c3)c3cnc([nH]3)-c3cc(ccc3F)Oc3c(F)cc4[nH]ccc4c3CCC1=O)CC2 (stereo not shown) [Compound 34, 3-[3-(23,29-Difluoro-6,12-dimethyl-13-oxo-spiro[25-oxa-3,12,20,31-tetrazapentacyclo[24.3.1.12,5.016,24.017,21]hentriaconta-1(30),2,4,16,18,21,23,26,28-nonaene-10,1′-cyclopropane]-6-yl)phenyl]propanoic acid]	C (a value greater than 10 °C and less than or equal to 25 °C is marked “C”)	A (a TECC value less than 3 is marked “A”)
CN1CC2(CCCC(C)(c3ccccc3)c3cnc([nH]3)-c3cc(ccc3F)Oc3c(F)cc4[nH]ccc4c3CCC1=O)CC2 (stereo not shown) [Compound 35, 23,29-Difluoro-6,12-dimethyl-6-phenyl-spiro[25-oxa-3,12,20,31-tetrazapentacyclo[24.3.1.12,5.016,24.017,21]hentriaconta-1(30),2,4,16,18,21,23,26,28-nonaene-10,1′-cyclopropane]-13-one]	A (an ΔTagg value less than or equal to 5 °C is marked “A”)	A (a TECC value less than 3 is marked “A”)
CC1(c2cccc(CCC(=O)O)c2)CCCC2(CC2)CNC(=O)CCc2c(c(F)cc3[nH]ccc23)Oc2ccc(F)c(c2)-c2ncc1[nH]2 (stereo not shown) [Compound 36, 3-[3-(23,29-Difluoro-6-methyl-13-oxo-spiro[25-oxa-3,12,20,31-tetrazapentacyclo[24.3.1.12,5.016,24.017,21]hentriaconta-1(30),2,4,16,18,21,23,26,28-nonaene-10,1′-cyclopropane]-6-yl)phenyl]propanoic acid]	C (a value greater than 10 °C and less than or equal to 25 °C is marked “C”)	B (a value between 3 and 6 is marked “B”)
CC1(c2ccccc2)CCCC2(CC2)CNC(=O)CCc2c(c(F)cc3[nH]ccc23)Oc2ccc(F)c(c2)-c2ncc1[nH]2 (stereo not shown) [Compound 37, 23,29-Difluoro-6-methyl-6-phenyl-spiro[25-oxa-3,12,20,31-tetrazapentacyclo[24.3.1.12,5.016,24.017,21]hentriaconta-1(30),2,4,16,18,21,23,26,28-nonaene-10,1′-cyclopropane]-13-one]	A (an ΔTagg value less than or equal to 5 °C is marked “A”)	A (a TECC value less than 3 is marked “A”)
